{"source": "patent US20180348222A1", "about": "“BUFADIENOLIDE FOR TREATMENT OF NON-SMALL CELL LUNG CANCER” (priority 2017, published 2018)", "key": {"A549 and H1975 cells [1]": {"test_system": "A549 and H1975 cells", "assay": "Apoptosis assay, co-treatment with Proscillaridin A", "type": "cell-based", "procedure": "(§1) A549, H1975 and HCC827 cells (1×10^5 cells /well) were seeded in a 6 -well plate for 24 h, and treated with the indicated concentrations of Proscillaridin A for an additional 24 h at 37° C. After indicated hours, the cells were washed by ice-cold 1×PBS once and harvested by trypsination. Then cell were centrifuged, collected and resuspended in ice-cold 1×PBS. After removing the supernatants, cell pellets were re-suspended in 100 μL 1× Annexin-binding buffer. The cells were then double-stained with Annexin-V FITC and PI (100 μg/mL) of 2 μL respectively for 15 min at room temperature in dark. After that, 300 μL 1× Annexin-binding buffer was added. Apoptotic cells were quantitatively counted by a BD Aria III Flow Cytometer (BD Biosciences, San Jose, Calif., USA)."}, "Na^+/K^+ ATPase": {"molecular_target": "Na^+/K^+ ATPase", "assay": "Na^+/K^+ ATPase enzyme activity assay", "type": "biochemical", "settings": "in vitro, enzyme from porcine cerebral cortex", "procedure": "The enzymatic activity of Na^+/K^+ ATPase (purchased from Sigma as lyophilized powder from porcine cerebral cortex) was measured by colorimetric quantification of P, released during ATP hydrolysis. A previously published procedure was adapted with some modifications. Begin with incubating 10 μl of Na^+/K^+ ATPase (600 units/m1) with 2.5 μl of KCl/NaCl solution (45 mM KCl and 2 M NaCl) at 37° C. for 30 min with either 5 μl of DMSO (control) or 5 μl of P.A (in different indicated concentrations) in 67.5 μl of buffer (24 mM Tric HCl buffer with 0.68 mM ethylenediaminetetraacetic acid and 6.0 mM magnesium chloride, pH 7.8). ATP (5 μl of 80 mM solution) was then added, and the reaction mixture was incubated again at 37° C. for 15 min. Trichloroacetic acid (30 μl of 100% w/v) was then added to the reaction mixture followed by centrifugation for 5 min. Supernatant (50 μl aliquot) was transferred to a 96 well plated containing 100 μl of Taussky-Shorr reagent. The absorbance at 660 nm was read after incubation at RT for 5 min."}, "mTOR phosphorylation": {"test_system": "mTOR phosphorylation", "assay": "Western blot", "type": "cell-based", "settings": "FIG. 8A", "procedure": "(§2) After incubation A549, H1975 and HCC827 cells with Proscillaridin A for 18 hours, cells were harvested and washed with cold 1× PBS. Then, cells were lysed with ice-cold RIPA lysis buffer with protease and phosphatase inhibitors added to extract the cell protein extraction. The supernatants were collected by centrifugation at 12,000 g, for 5 min. The quantitation of total protein extraction was measured by Bio-Rad DCTM protein assay kit (Bio-Rad, Philadelphia, Pa., USA). Then 35 μg of protein were loaded and electrophoretically separated on 8% SDS-PAGE gel and then transferred to Nitrocellulose (NC) membrane.\n(§3) Membranes were blocked with 5% non-fat milk and […] containing 0.1% Tween-20 (TBST) for 1 h at room temperature. After 1 h, membranes were incubated with primary antibodies (1:1000 dilution) against β-actin, GAPDH, total/phosphor-EGFR, total/phosphor-AKT, total/phosphor-JNK, total/phosphor-AMPK, total/phosphor-ACC, phosphor-mTOR, IKK-α, Iκ-Bα, phosphor-NFκB-P65, Caspase-9, Caspase-7, BAX and Bcl-2 at 4° C. with gently shaking overnight. Membranes were washed with TBST for 3 times (5 min/time), and incubated with secondary fluorescent antibody (1:10000 dilutions) for 1 h at room temperature. Rewashing with TBST for 3 times (15 min/time), the stripes were visualized by LI-COR Odessy scanner (Belfast, Me., USA)."}, "NF-κB pathway": {"test_system": "NF-κB pathway", "assay": "Western blot", "type": "cell-based", "settings": "dose-dependent", "procedure": "as §2, §3"}, "JNK phosphorylation": {"test_system": "JNK phosphorylation", "assay": "Western blot", "type": "cell-based", "settings": "FIG. 8A", "procedure": "as §2, §3"}, "AMPK phosphorylation": {"test_system": "AMPK phosphorylation", "assay": "Western blot", "type": "cell-based", "settings": "FIG. 8A", "procedure": "as §2, §3"}, "[2]": {"test_system": "acetyl-CoA carboxylase (ACC) phosphorylation", "assay": "Western blot", "type": "cell-based", "settings": "FIG. 8A", "procedure": "as §2, §3"}, "[3]": {"test_system": "EGFR phosphorylation of tyrosine residue 1173 in HCC827", "assay": "Western blot of EGFR activation", "type": "cell-based", "settings": "HCC827, 18 hours", "procedure": "as §2, §3"}, "[4]": {"test_system": "EGFR phosphorylation of tyrosine residue 1173 in H1975", "assay": "Western blot of EGFR activation", "type": "cell-based", "settings": "H1975, 18 hours", "procedure": "as §2, §3"}, "H358 cells": {"test_system": "H358 cells", "assay": "MTT cytotoxicity assay", "type": "cell-based", "settings": "H358, KRAS, 24 h", "procedure": "(§4) Cells were seeded in a 96-well microplate with 3000-5000 cells/well confluence, and put into the incubator overnight for cells adhesion. Different concentrations of drug Proscillaridin A were added with Dimethyl sulfoxide (DMSO) as vehicle control. The microplates were incubated for further 24 h. Each dosage was repeated in triplicate. 10 μL of MTT (5 mg/mL) solution was added to each well. The plate was placed back into the incubator for 4 h. After that, 100 μL of resolved solution (10% SDS and 0.1 mM HCL) was added to each well.\n(§5) Before dissolving the formazan crystals, the microplate was put back into the incubator for another 4 h. The absorbance of the plate was measured at 570 nm with reference 650 nm by a microplate reader (Tecan, Morrisville, N.C., USA). Cell viability was calculated by percentages of the absorbance of the treatment group divided by the absorbance of untreated group. At least three independent experiments were performed for data analysis and presentation."}, "H2228 cells": {"test_system": "H2228 cells", "assay": "MTT cytotoxicity assay", "type": "cell-based", "settings": "H2228, EML4-ALK, 24 h", "procedure": "as §4, §5"}, "HCC78 cells": {"test_system": "HCC78 cells", "assay": "MTT cytotoxicity assay", "type": "cell-based", "settings": "HCC78, SLC3482-ROS, 24 h", "procedure": "as §4, §5"}, "A549 cells [5]": {"test_system": "A549 cells", "assay": "MTT cytotoxicity assay", "type": "cell-based", "settings": "A549, EGFR wild type, 24 h", "procedure": "as §4, §5"}, "[6]": {"test_system": "CCD19-LU normal lung fibroblast cell line", "assay": "MTT cytotoxicity assay", "type": "cell-based", "procedure": "as §4, §5"}, "HCC827 cells [7]": {"test_system": "HCC827 cells", "assay": "MTT cytotoxicity assay", "type": "cell-based", "settings": "HCC827, EGFR exon 19 deletion, 24 h", "procedure": "as §4, §5"}, "H1975 cells [8]": {"test_system": "H1975 cells", "assay": "MTT cytotoxicity assay", "type": "cell-based", "settings": "H1975, EGFR double mutant, 24 h", "procedure": "as §4, §5"}, "A549 cells [9]": {"test_system": "A549 cells", "assay": "Apoptosis assay (Annexin-V/PI flow cytometry)", "type": "cell-based", "procedure": "as §1"}, "HCC827 cells [10]": {"test_system": "HCC827 cells", "assay": "Apoptosis assay (Annexin-V/PI flow cytometry)", "type": "cell-based", "settings": "HCC827, 50 nM, 24 h", "procedure": "as §1"}, "H1975 cells [11]": {"test_system": "H1975 cells", "assay": "Apoptosis assay (Annexin-V/PI flow cytometry)", "type": "cell-based", "procedure": "as §1"}, "DR4 expression": {"test_system": "DR4 expression", "assay": "Regular and quantitative RT-PCR", "type": "cell-based", "settings": "12 h treatment", "procedure": "Cells were incubated with Proscillaridin A for 12 hours. Total RNA was then extracted from treated cells using a TRIzol reagent (Invitrogen, Carlsbad, Calif., USA) following the manufacturer's instructions and was used to prepare cDNA. Quantitative real-time PCR was performed with High-productivity Real-Time quantitative PCR ViiA™7 (Life Technologies).\nThe glyceraldehyde […] dehydrogenase (GAPDH) gene was used as the reference gene. All data were means of fold change of triplicate analysis and normalized with those of GAPDH."}, "[12]": {"test_system": "A549, H1975 and HCC827 cells", "assay": "Colony-formation assay", "type": "cell-based", "settings": "all three cell lines", "procedure": "Colony-forming assay was performed as previously described. Briefly, About 300 cells were plated into every well of 6 -well plate with 2 ml of culture medium and grown at 37° C. with 5% CO2. After 48 h culture for cell adherence to the plate, rinsed with fresh medium, Proscillaridin A (with indicated different dosages) was added to the medium. 48 h later, the cells were washed twice with PBS and then incubated in drug-free medium. The medium was changed every 5 days. After culturing for additional 10 to 14 days, the medium was discarded and each dish was washed twice with PBS carefully. The cells were fixed with 3.7% Paraformaldehyde for 20 min and 0.2% crystal violet solution in 10% ethanol for 10 min. Excess stain was removed by washing repeatedly with PBS. All the procedures were done at room temperature. The plates can be stored at room temperature or at +4° C. for several months without any visible fading of the dye."}, "A549 and H1975 cells [13]": {"test_system": "A549 and H1975 cells", "assay": "Measurement of intracellular calcium (Fluo-3)", "type": "cell-based", "settings": "A549 and H1975, after 6 h", "procedure": "Changes in intracellular free calcium were measured by a fluorescent dye, Fluo-3 as previously described. Briefly, A549 and H1975 cells were washed twice with culture media after Proscillaridin A treatment (6.25-25 nM) for 6 hours. Then cell suspensions were incubated with 5 μM Fluo-3 at 37° C. for 30 min. After the cells were washed twice with HBSS, the re-suspended cell samples were then subjected to FACS analysis. At least 10,000 events were analyzed."}, "[14]": {"test_system": "PARP, Caspase-7, Caspase-9, AKT, BAX, Bcl-2", "assay": "Western blot of apoptosis-related proteins", "type": "cell-based", "settings": "A549, H1975, HCC827", "procedure": "as §2, §3"}}, "data": [{"compound": "c1cc(-c2cnn3cc(-c4ccc(OCCN5CCCCC5)cc4)cnc23)ccn1", "note": "[Compound C]", "values": [{"measurement": "apoptotic cells after co-treatment with Proscillaridin A", "setting": "A549 and H1975 cells [1]; AMPK inhibitor co-treatment, A549 and H1975", "result": "partially weakened the apoptotic cells"}]}, {"compound": "Proscillaridin A", "values": [{"measurement": "IC50", "setting": "Na^+/K^+ ATPase", "result": "0.83 ± 0.3", "unit": "nM"}, {"measurement": "phosphorylation of mTOR", "setting": "mTOR phosphorylation", "result": "inhibited the phosphorylation of mTOR"}, {"measurement": "NF-κB pathway activation", "setting": "NF-κB pathway", "result": "significantly inhibited"}, {"measurement": "phosphorylation of JNK", "setting": "JNK phosphorylation", "result": "significantly activated the phosphorylation of JNK"}, {"measurement": "phosphorylation of AMPK", "setting": "AMPK phosphorylation", "result": "significantly induced the phosphorylation of AMPK"}, {"measurement": "phosphorylation of ACC", "setting": "[2]", "result": "significantly induced the phosphorylation"}, {"measurement": "EGFR activation (phosphorylation of tyrosine residue 1173)", "setting": "[3]", "result": "inhibited the EGFR activation"}, {"measurement": "EGFR activation (phosphorylation of tyrosine residue 1173)", "setting": "[4]", "result": "inhibited the EGFR activation"}, {"measurement": "CC50", "setting": "H358 cells", "result": "25.8 ± 4.9", "unit": "nM"}, {"measurement": "CC50", "setting": "H2228 cells", "result": "23.6 ± 5.4", "unit": "nM"}, {"measurement": "CC50", "setting": "HCC78 cells", "result": "37.6 ± 9.9", "unit": "nM"}, {"measurement": "CC50", "setting": "A549 cells [5]", "result": "14 ± 2.8", "unit": "nM"}, {"measurement": "CC50", "setting": "[6]; CCD19-LU normal fibroblast cell, 24 h", "result": "> 400", "unit": "nM"}, {"measurement": "inhibition of cell proliferation in normal lung fibroblast cells", "setting": "[6]; CCD19-LU, 30-folds higher concentrations of the CC50 in EGFR-dependent NSCLC cells", "result": "no significant inhibitory effect"}, {"measurement": "CC50", "setting": "HCC827 cells [7]", "result": "13.9 ± 1.8", "unit": "nM"}, {"measurement": "CC50", "setting": "H1975 cells [8]", "result": "15 ± 3.6", "unit": "nM"}, {"measurement": "apoptotic cells", "setting": "A549 cells [9]; A549, 50 nM, 24 h", "result": "about 70%"}, {"measurement": "concentration at which significant induction of apoptosis starts", "setting": "A549 cells [9]; A549, 24 h", "result": 12.5, "unit": "nM"}, {"measurement": "increase of apoptosis", "setting": "HCC827 cells [10]", "result": "about 10%"}, {"measurement": "apoptotic cells", "setting": "H1975 cells [11]; H1975, 50 nM, 24 h", "result": "about 70%"}, {"measurement": "concentration at which significant induction of apoptosis starts", "setting": "H1975 cells [11]; H1975, 24 h", "result": 25, "unit": "nM"}, {"measurement": "DR4 gene expression", "setting": "DR4 expression", "result": "significantly elevated"}, {"measurement": "clonogenic growth (colony formation)", "setting": "[12]", "result": "can suppress clonogenic growth"}, {"measurement": "cellular Ca^2+ level", "setting": "A549 and H1975 cells [13]", "result": "remarkably increases the in vitro Ca^2+ level"}, {"measurement": "AKT activation", "setting": "[14]", "result": "inhibited"}, {"measurement": "BAX level", "setting": "[14]", "result": "up-regulated"}, {"measurement": "Bcl-2 level", "setting": "[14]", "result": "down-regulated"}, {"measurement": "PARP, Caspase-7 and Caspase-9 cleavage", "setting": "[14]", "result": "cleaved and activated"}]}, {"compound": "CC(=O)OCOC(=O)CN(CC(=O)OCOC(C)=O)c1ccccc1OCCOc1ccccc1N(CC(=O)OCOC(C)=O)CC(=O)OCOC(C)=O", "note": "[BAPTA/AM]", "values": [{"measurement": "apoptotic cells after co-treatment with Proscillaridin A", "setting": "A549 and H1975 cells [1]; Ca^2+ chelator co-treatment, flow cytometry", "result": "significant decrease of apoptotic cells"}]}]}
